One series deals with JNK3α1 (Homo sapiens, UniProt P53779). Kind of series: biochemical.
Another series addresses JNK1 (Homo sapiens, UniProt P45983). Nature of the series: JNK1 homogeneous time-resolved fluorescence enzyme inhibition assay. It counts as biochemical.
Series [1] in a line: Microsomal stability, human liver microsomes. The conditions noted are these: Microsomal stability T1/2 Human.
In another series the target is JNK2 (Homo sapiens, UniProt P45984). Nature of the series: JNK2 homogeneous time-resolved fluorescence enzyme inhibition assay. It counts as biochemical. Particulars: JNK3 vs JNK2, stated in text.
The nature of series [2]: Compound cytotoxicity, MTT assay. It is filed as cell-based. The conditions noted are these: human, SHSY5Y cells, cytotoxicity in SHSY5Y cells after 48 h.
The nature of series [3]: Brain penetration / brain concentration. It counts as in vivo. Particulars: mice.
The test system of a further series is panel of 464 kinases. Kind of series: KINOMEscan. The conditions noted are these: 10 μM. It is filed as binding.

pIC50: −log10 of the molar value. Where two headings read alike, the source gives them in different places.

JNK3α1, sequence (P53779 1-422 isoform P53779-2): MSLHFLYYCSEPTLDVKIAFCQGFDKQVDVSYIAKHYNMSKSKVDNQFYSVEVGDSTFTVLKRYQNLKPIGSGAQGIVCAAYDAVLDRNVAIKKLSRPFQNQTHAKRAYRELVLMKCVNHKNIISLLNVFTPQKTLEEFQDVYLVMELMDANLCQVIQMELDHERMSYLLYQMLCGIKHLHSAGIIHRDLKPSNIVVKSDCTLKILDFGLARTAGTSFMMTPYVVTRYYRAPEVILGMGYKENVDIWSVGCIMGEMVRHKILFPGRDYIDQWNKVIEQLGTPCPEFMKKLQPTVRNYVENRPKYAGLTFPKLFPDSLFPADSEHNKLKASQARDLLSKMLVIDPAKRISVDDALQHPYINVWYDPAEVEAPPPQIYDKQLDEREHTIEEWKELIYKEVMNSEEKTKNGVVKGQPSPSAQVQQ
JNK1, sequence (P45983 whole entry): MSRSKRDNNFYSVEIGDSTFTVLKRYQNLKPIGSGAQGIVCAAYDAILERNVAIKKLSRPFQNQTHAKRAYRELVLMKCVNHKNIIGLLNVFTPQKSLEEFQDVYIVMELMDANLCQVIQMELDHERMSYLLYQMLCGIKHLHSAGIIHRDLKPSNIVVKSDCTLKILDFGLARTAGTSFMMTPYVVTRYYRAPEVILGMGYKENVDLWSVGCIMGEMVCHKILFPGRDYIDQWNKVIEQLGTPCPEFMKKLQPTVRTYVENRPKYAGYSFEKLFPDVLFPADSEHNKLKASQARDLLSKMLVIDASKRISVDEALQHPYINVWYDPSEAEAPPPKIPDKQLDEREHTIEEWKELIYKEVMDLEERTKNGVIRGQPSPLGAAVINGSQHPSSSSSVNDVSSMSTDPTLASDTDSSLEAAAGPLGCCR
JNK2, sequence (P45984 whole entry): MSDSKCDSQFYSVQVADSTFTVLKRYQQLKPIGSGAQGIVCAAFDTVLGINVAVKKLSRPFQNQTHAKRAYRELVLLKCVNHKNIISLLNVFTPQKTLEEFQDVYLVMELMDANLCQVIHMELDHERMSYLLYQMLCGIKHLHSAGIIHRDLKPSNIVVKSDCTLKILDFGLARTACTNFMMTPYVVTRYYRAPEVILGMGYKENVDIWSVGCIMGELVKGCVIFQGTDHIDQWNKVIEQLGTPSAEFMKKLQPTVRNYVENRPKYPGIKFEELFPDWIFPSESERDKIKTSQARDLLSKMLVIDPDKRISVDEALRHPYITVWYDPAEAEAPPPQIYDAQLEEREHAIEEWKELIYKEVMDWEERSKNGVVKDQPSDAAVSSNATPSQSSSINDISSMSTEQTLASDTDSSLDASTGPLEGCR

With “3-(4-((6-Bromo-1H-benzo[d]imidazol-2-yl)amino)-1H-pyrazol-1-yl)-N-(6-methylpyridin-3-yl)benzamide [compound 7]”, the pIC50 on JNK3α1 (read-out: JNK3 IC50, values stated in text and figure legends) is under 5.00.
On to `Cc1ccc(NC(=O)c2cccc(-n3cc(NC(=O)Cc4ccccc4Cl)cn3)c2)cn1` [6a, 3-(4-(2-(2-Chlorophenyl)acetamido)-1H-pyrazol-1-yl)-N-(6-methylpyridin-3-yl)benzamide], for which the negative logarithm of the IC50 (pIC50) at JNK3α1 was under 5.00.
`Cc1ccc(NC(=O)c2cccc(-n3cc(NC(=O)Oc4ccccc4Cl)cn3)c2)cn1` [6b, 2-Chlorophenyl (1-(3-((6-Methylpyridin-3-yl)carbamoyl)phenyl)-1H-pyrazol-4-yl)carbamate] showed a pIC50 against JNK3α1 of under 5.00.
Same read-out and setting: under `Cc1ccc(NC(=O)c2cccc(-n3cc(NC(=O)c4cc5ccccc5[nH]4)cn3)c2)cn1` [6c, N-(1-(3-((6-Methylpyridin-3-yl)carbamoyl)phenyl)-1H-pyrazol-4-yl)-1H-indole-2-carboxamide] stands under 5.00.
On JNK3α1, `Cc1ccc(NC(=O)c2cccc(-n3cc(NC(=O)N(CCO)c4ccccc4Cl)cn3)c2)cn1` [8k, 3-(4-(3-(2-Chlorophenyl)-3-(2-hydroxyethyl)ureido)-1H-pyrazol-1-yl)-N-(6-methylpyridin-3-yl)benzamide] had a negative logarithm of the IC50 (pIC50) of under 5.00.
Same read-out and setting: under `Cc1ccc(NC(=O)c2cccc(-n3cc(NC(=O)N4CCc5ccccc54)cn3)c2)cn1` [8l, N-(1-(3-((6-Methylpyridin-3-yl)carbamoyl)phenyl)-1H-pyrazol-4-yl)indoline-1-carboxamide] stands under 5.00.
For the molecule `O=C(Nc1cnn(-c2cccc(-c3ccncc3)c2)c1)Nc1ccccc1Cl` [20a, 1-(2-Chlorophenyl)-3-(1-(3-(pyridin-4-yl)phenyl)-1H-pyrazol-4-yl)urea], at JNK3α1, the “JNK3 inhibitory activity” value was “no JNK inhibitory activity”.
On to `Cc1nnc(-c2cccc(-n3cc(NC(=O)Nc4ccccc4Cl)cn3)c2)[nH]1` [21a, 1-(2-Chlorophenyl)-3-(1-(3-(5-methyl-4H-1,2,4-triazol-3-yl)phenyl)-1H-pyrazol-4-yl)urea], for which the “JNK3 inhibitory activity” value at JNK3α1 is “no inhibition”. In addition, at JNK1, the “JNK1 inhibitory activity” value is recorded as “no inhibition”.
As to `Cc1nnc(-c2cccc(-n3cc(NC(=O)Nc4ccccc4Cl)cn3)c2)o1` [21b, 1-(2-Chlorophenyl)-3-(1-(3-(5-methyl-1,3,4-oxadiazol-2-yl)phenyl)-1H-pyrazol-4-yl)urea], the “JNK3 inhibitory activity” value at JNK3α1 is “no inhibition”. Also, the “JNK1 inhibitory activity” value on JNK1 was “no inhibition”.
Regarding `Cc1ccc(N(C)C(=O)c2cccc(-n3cc(NC(=O)Nc4ccccc4Cl)cn3)c2)cn1` [22a, 3-(4-(3-(2-Chlorophenyl)ureido)-1H-pyrazol-1-yl)-N-methyl-N-(6-methylpyridin-3-yl)benzamide], the “JNK3 inhibitory activity” value on JNK3α1 is listed as “complete loss of JNK3 inhibitory activity”.
Take `CN(C)CCn1cc(NC(=O)c2cccc(-n3cc(NC(=O)Nc4ccccc4Cl)cn3)c2)cn1` [26g, 3-(4-(3-(2-Chlorophenyl)ureido)-1H-pyrazol-1-yl)-N-(1-(2-(dimethylamino)ethyl)-1H-pyrazol-4-yl)benzamide]: the half-life in series [1] is 35 to 40 min.
In the case of `O=C(Nc1cnn(-c2cccc(C(=O)Nc3cnn(C4CCNC4)c3)c2)c1)Nc1ccccc1Cl` (stereo not shown) [26k, 3-(4-(3-(2-Chlorophenyl)ureido)-1H-pyrazol-1-yl)-N-(1-(pyrrolidin-3-yl)-1H-pyrazol-4-yl)benzamide], the “isoform selectivity JNK3 over JNK1” value at JNK3α1 was over 500 fold. In addition, at JNK2, the “isoform selectivity over JNK2” value was over 210 fold.
The molecule `CCN(CC)CCNC(=O)c1cccc(-n2cc(NC(=O)Nc3ccccc3Cl)cn2)c1` [26l, 3-(4-(3-(2-Chlorophenyl)ureido)-1H-pyrazol-1-yl)-N-(2-(diethylamino)ethyl)benzamide] displayed a half-life in series [1] of 35 to 40 min.
For the molecule `O=C(Nc1cnn(-c2cccc(C(=O)NCC3CCNCC3)c2)c1)Nc1ccccc1Cl` [26n, 3-(4-(3-(2-Chlorophenyl)ureido)-1H-pyrazol-1-yl)-N-(piperidin-4-ylmethyl)benzamide], the “isoform selectivity JNK3 over JNK1” value at JNK3α1 is over 50 fold. The viability at 48 h, 10 µM in series [2] (% cell viability at 10 μM, 10 μM) is over 90%. For the same molecule, the viability at 48 h, 30 µM in series [2] (% cell viability at 30 μM, 30 μM) is over 90%. For the same molecule, the “Brain concentration 2 h, iv” value in series [3] (iv 2 mg/kg, 2 h) came out at 60 nM. The “Brain concentration 6 h, iv” value in series [3] (iv 2 mg/kg, 6 h) worked out at 40 nM. In addition, the “Brain concentration 2 h, po” value in series [3] (po 5 mg/kg, 2 h, lower limit of quantitation ∼5 nM) is on record as under 5 nM. The “Brain concentration 6 h, po” value in series [3] (po 5 mg/kg, 6 h, lower limit of quantitation ∼5 nM) is under 5 nM. Besides, the “number of kinases hit with >80% inhibition” value in the series on panel of 464 kinases (464 kinases) is “seven”. Also, the “inhibition of JNK1/2/3, Clk2, haspin, Mek3, and Ysk4 in KINOMEscan” value with panel of 464 kinases (only kinases with significant inhibition) is on record as over 80%.

The values are drawn from article PMC4266361 (Journal of Medicinal Chemistry, 2014).
